Assay results reported in article PMC7262777 (Journal of medicinal chemistry, 2020).
Values belong to the compound of their own block, whether it stands above or below them.

Assays:
D4R = target: T1, D4R (Homo sapiens, UniProt P21917); test: DiscoverX gpcrMAX panel, agonist mode, D4R; details: 10 μM
T1 sequence (P21917 1-419): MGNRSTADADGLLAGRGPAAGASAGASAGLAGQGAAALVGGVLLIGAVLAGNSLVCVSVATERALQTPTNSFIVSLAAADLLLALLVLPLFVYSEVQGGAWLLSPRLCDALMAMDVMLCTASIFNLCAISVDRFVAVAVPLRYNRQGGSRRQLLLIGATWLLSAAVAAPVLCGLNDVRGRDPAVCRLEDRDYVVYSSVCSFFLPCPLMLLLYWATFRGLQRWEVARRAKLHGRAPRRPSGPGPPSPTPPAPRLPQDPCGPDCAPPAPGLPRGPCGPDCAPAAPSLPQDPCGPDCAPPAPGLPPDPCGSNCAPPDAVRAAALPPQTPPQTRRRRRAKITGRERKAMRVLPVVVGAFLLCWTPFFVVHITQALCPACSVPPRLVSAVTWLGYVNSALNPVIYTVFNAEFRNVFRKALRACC

D3R [1] = target: T2, D3R (Homo sapiens, UniProt P35462); details: 10 μM
T2 sequence (P35462 whole entry): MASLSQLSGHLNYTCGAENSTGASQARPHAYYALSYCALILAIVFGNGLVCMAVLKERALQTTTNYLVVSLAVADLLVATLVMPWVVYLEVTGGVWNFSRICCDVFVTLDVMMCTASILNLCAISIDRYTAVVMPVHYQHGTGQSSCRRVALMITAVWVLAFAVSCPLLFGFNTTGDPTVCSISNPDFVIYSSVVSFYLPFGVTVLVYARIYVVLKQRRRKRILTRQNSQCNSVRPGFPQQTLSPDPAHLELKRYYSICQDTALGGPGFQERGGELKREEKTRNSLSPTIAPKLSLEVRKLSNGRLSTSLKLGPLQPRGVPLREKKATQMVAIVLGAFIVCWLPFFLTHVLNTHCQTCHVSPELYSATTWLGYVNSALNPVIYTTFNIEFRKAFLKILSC

chemokine CXCR7 receptor = chemokine CXCR7 receptor (Homo sapiens, UniProt P25106); test: DiscoverX gpcrMAX panel, agonist mode, CXCR7; details: 10 μM
chemokine CXCR7 receptor, sequence (P25106 whole entry): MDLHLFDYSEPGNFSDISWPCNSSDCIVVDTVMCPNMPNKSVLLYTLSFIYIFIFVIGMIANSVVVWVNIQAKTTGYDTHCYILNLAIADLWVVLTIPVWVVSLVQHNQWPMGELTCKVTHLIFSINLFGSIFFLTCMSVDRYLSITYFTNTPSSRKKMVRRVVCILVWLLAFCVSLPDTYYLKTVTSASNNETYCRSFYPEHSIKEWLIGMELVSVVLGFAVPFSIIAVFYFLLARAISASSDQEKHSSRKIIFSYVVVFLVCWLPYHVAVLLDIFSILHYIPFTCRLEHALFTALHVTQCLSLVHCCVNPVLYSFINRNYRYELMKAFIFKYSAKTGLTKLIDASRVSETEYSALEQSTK

human D2RL = human D2RL (Homo sapiens, UniProt P14416); test: [3H]-methylspiperone competition binding, D2R membranes
human D2RL, sequence (P14416 whole entry): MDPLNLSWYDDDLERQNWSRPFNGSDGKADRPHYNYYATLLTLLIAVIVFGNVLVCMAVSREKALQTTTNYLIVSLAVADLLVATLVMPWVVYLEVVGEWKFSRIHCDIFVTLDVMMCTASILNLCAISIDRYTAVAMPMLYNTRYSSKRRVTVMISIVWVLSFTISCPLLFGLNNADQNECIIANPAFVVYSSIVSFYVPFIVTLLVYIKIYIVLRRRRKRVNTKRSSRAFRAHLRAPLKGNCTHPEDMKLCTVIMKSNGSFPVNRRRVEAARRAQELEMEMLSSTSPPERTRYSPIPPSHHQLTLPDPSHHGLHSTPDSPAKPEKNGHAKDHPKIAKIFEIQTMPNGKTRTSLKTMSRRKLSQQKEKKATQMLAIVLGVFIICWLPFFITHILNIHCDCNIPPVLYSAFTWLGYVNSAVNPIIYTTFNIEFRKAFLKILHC

D2R = D2R (Homo sapiens, UniProt P14416); test: β-arrestin recruitment DiscoverX PathHunter assay, agonist mode, D2R; type: cell-based
D2R, sequence (P14416 whole entry): as above

[2] = test system: D3R-expressing dopaminergic neurons derived from human iPSCs; test: MTT cell viability, protection from 6-OHDA-induced cell death
ADRA2C = target: T3, ADRA2C (Homo sapiens, UniProt P18825); test: DiscoverX gpcrMAX panel, antagonist mode, ADRA2C; details: 10 μM, percent inhibition of EC80 reference agonist
T3 sequence (P18825 1-462): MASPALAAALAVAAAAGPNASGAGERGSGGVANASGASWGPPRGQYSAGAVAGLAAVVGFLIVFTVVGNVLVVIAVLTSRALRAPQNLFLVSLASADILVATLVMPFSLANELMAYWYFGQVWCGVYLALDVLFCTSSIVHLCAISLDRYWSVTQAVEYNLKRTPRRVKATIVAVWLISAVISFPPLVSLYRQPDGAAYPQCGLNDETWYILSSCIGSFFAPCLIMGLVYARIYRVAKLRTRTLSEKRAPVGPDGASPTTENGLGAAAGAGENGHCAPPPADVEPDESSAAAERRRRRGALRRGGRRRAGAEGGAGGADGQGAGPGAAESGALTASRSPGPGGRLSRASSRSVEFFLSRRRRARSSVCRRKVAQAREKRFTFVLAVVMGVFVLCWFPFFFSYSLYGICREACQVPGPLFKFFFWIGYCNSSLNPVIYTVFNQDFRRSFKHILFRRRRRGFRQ

[3] = target: D2R (short and long isoforms) (Homo sapiens, UniProt P14416); test: DiscoverX gpcrMAX panel, agonist mode, D2R; details: 10 μM
D2R (short and long isoforms), sequence (P14416 1-414 isoform P14416-2): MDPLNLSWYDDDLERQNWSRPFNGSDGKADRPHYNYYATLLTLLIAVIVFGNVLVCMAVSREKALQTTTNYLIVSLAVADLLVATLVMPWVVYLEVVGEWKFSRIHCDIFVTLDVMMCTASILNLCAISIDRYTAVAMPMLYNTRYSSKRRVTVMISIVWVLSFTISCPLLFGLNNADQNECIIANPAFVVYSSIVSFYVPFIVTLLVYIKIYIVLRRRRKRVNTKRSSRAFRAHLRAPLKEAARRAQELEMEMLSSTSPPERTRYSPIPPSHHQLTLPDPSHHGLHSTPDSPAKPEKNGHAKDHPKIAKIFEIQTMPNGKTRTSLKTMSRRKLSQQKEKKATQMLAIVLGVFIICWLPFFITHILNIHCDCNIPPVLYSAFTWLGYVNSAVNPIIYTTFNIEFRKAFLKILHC

[4] = test system: all other receptor subtypes (D1R, D2R, D4R, D5R); type: cell-based; details: β-arrestin recruitment
human 5-HT2B = human 5-HT2B (Homo sapiens, UniProt P41595); test: Inositol 1-phosphate; type: cell-based
human 5-HT2B, sequence (P41595 whole entry): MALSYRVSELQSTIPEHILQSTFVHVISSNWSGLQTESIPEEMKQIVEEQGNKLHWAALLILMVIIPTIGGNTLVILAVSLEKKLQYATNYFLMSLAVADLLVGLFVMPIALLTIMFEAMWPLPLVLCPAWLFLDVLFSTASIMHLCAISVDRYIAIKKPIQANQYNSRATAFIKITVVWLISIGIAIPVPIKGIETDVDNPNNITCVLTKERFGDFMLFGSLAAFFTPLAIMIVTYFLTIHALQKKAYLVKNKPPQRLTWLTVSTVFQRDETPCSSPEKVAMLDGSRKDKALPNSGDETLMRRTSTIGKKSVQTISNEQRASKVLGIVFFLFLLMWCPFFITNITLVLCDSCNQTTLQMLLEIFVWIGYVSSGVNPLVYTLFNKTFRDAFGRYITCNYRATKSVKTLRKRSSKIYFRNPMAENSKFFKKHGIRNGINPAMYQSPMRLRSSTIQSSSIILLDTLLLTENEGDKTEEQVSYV

bacteria = test: Ames reverse mutation assay
HTR2A = HTR2A (Homo sapiens, UniProt P28223); test: DiscoverX gpcrMAX panel, antagonist mode, HTR2A; type: cell-based; details: 10 μM, percent inhibition of EC80 reference agonist
HTR2A, sequence (P28223 whole entry): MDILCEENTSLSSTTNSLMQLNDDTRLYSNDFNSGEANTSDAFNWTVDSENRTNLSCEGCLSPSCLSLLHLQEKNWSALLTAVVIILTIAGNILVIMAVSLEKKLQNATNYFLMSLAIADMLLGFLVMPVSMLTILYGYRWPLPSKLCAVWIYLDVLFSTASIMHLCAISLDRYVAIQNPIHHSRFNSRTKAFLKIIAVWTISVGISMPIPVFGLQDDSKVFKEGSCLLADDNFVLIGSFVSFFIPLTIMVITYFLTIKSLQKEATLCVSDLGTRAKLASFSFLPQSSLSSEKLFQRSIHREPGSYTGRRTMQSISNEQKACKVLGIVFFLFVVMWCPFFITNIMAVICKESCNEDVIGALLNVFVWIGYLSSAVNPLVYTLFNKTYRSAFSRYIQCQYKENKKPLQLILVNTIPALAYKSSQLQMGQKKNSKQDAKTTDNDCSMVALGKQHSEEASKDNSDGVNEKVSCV

pKa titration = type: physicochemical
D3R [5] = target: T2, D3R; test: β-arrestin recruitment DiscoverX PathHunter assay, agonist mode, D3R; type: cell-based
[6] = target: alpha2B-adrenergic receptor (Homo sapiens, UniProt P18089); details: 10 μM
alpha2B-adrenergic receptor, sequence (P18089 whole entry): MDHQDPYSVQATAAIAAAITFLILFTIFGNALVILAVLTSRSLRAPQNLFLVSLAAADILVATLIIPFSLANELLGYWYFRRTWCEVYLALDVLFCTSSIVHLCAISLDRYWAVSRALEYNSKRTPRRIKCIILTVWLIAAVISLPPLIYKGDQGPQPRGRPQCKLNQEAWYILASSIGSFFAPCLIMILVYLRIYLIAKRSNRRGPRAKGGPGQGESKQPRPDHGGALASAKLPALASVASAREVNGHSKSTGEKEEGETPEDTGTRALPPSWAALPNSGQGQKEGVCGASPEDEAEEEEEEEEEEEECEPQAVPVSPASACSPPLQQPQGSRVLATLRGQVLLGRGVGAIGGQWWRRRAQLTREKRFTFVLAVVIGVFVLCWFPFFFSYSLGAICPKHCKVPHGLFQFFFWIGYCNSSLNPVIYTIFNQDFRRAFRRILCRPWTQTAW

168 known GPCRs = details: 10 μM

agonist activity, D4R (gpcrMAX) (D4R): partial agonist activities
agonist activity, D3R (gpcrMAX) (D3R [1]): full agonist
agonist activity, CXCR7 (gpcrMAX) (chemokine CXCR7 receptor): partial agonist activities
Structure (SMILES): CCCN(CC[C@]1(O)C[C@H](NC(=O)c2ccc3ccccc3c2)C1)[C@H]1CCc2nc(N)sc2C1 [CJ-1639]

IC50 (human 5-HT2B): 13 nM
Structure (SMILES): Cn1ccc2cc3c(cc21)CCN3C(=O)Nc1cccnc1 [SB206553, reference compound]

More lines, now with the values behind:

Structure (SMILES): COc1ccc(OCCN2CCN(C(=O)c3ccc(OC)cc3)CC2)cc1 [Compound 1, (4-(2-(4-Methoxyphenoxy)ethyl)piperazin-1-yl)(4-methoxyphenyl)methanone]
IC50 for inhibiting [3H]-methylspiperone binding to the D2R (human D2RL): no measurable ability to displace binding
D2R agonist activity EC50 (D2R; β-arrestin recruitment (DiscoverX), agonist mode): No measurable agonist activity

Structure (SMILES): NCCc1cc(O)c(O)cc1O [Compound 6-OHDA, 6-hydroxydopamine]
reduction of cell viability ([2]; 30 μM, 24 hr, no drug (vehicle)): 62 ± 8%

Structure (SMILES): COc1ccc(OCCN2CCN(C(=O)c3cc4ccccc4[nH]3)CC2)cc1 [Compound 20, (1H-Indol-2-yl)(4-(2-(4-methoxyphenoxy)ethyl)piperazin-1-yl)methanone]
partial antagonist activity, ADRA2C (ADRA2C): 36%
agonist activity, D2R (gpcrMAX) [3]: small, but measurable agonist responses
agonist efficacy at other dopamine receptor subtypes [4]: minimal agonist efficacy
5-HT2B agonist activity (IP1 accumulation) (human 5-HT2B; 10 μM): no agonist activity
AMES reverse mutation assay (bacteria): no toxicity was observed
partial antagonist activity, HTR2A (HTR2A): 37%
pKa (pKa titration): 8.62

Structure (SMILES): COc1ccc2cc(C(=O)N3CCN(CCOc4cccnc4)CC3)[nH]c2c1 [Compound 58, (6-Methoxy-1H-indol-2-yl)(4-(2-(pyridin-3-yloxy)ethyl)piperazin-1-yl)methanone]
D3R agonist activity EC50 (D3R [5]): single-digit nanomolar range

Structure (SMILES): COc1ccc2[nH]c(C(=O)N3CCN(CCOc4cccnc4)CC3)cc2c1 [Compound 59, (5-Methoxy-1H-indol-2-yl)(4-(2-(pyridin-3-yloxy)ethyl)piperazin-1-yl)methanone]
D2R agonist activity Emax (D2R; percentage of the maximum dopamine response): 97 ± 2.8 % control

Structure (SMILES): CCCN[C@H]1CCc2nc(N)sc2C1 [Pramipexole, pramipexole]
agonist activity, alpha2B-adrenergic receptor (gpcrMAX) [6]: partial agonist activity
concentration giving significant reduction in 6-OHDA-induced cell death ([2]; 24 h pretreatment, 30 μM 6-OHDA 24 h, MTT): 500 nM
agonist activity, D2R (gpcrMAX) [3]: full agonist activity
antagonist activity at any of the GPCRs tested (168 known GPCRs): did not exhibit antagonist activity
agonist activity, D3R (gpcrMAX) (D3R [1]): full agonist activity
